Measured values reported in patent publication US5202315A, “Cephalosporin compounds” (Lucky, Ltd., priority 1989, dated 1993).
Values after ≈ are worked out from the molar mass of the structure shown.

Tests used:
Assay in all cases: Antibacterial activity, MIC
Format in all cases: cell-based
[1] = tested on: Enterobacter aerogenes ATCC 29751; conditions: Klebsiella aerogenes, ATCC29751; ATCC 29751; agar two-fold dilution, 37° C., 20 hours; read-out: MIC
Description: (§1) Also, the in vitro antibacterial activity was determined by the by a two-fold dilution method as described below:
(§2) That is, the two-fold serial dilutions of the compound were made dispersed in Muller-Hinton agar medium. 2 μl of standard test strain which had the 10^7 CFU per ml was inoculated on the medium, and was incubated at 37° C. for 20 hours.

[2] = tested on: Salmonella typhimurium ATCC 14028; conditions: Salmonella enterica; ATCC 14028; agar two-fold dilution, 37° C., 20 hours; read-out: MIC
Description: as §1, §2

[3] = tested on: Streptococcus faecalis ATCC 29212; conditions: Enterococcus faecalis, ATCC29212; ATCC 29212; agar two-fold dilution, 37° C., 20 hours; read-out: MIC
Description: as §1, §2

[4] = tested on: Morganella morganii ATCC 8076h; conditions: ATCC8076H, agar two-fold dilution, 37° C., 20 hours
Description: as §1, §2

[5] = tested on: Pseudomonas aeruginosa ATCC 10145; conditions: ATCC10145, ATCC 10145, agar two-fold dilution, 37° C., 20 hours, read-out: MIC
Description: as §1, §2

[6] = tested on: Staphylococcus aureus ATCC 10537; conditions: ATCC10537, ATCC 10537, agar two-fold dilution, 37° C., 20 hours, read-out: MIC
Description: as §1, §2

[7] = tested on: Proteus vulgaris ATCC 6059; conditions: ATCC6059, ATCC 6059, agar two-fold dilution, 37° C., 20 hours, read-out: MIC
Description: as §1, §2

[8] = tested on: Bacillus cereus ATCC 11778; conditions: ATCC11778, ATCC 11778, agar two-fold dilution, 37° C., 20 hours, read-out: MIC
Description: as §1, §2

[9] = tested on: Escherichia coli ATCC 25922; conditions: ATCC25922, agar two-fold dilution, 37° C., 20 hours
Description: as §1, §2

[10] = tested on: Bacillus megaterium ATCC 9885; conditions: Priestia megaterium, ATCC9885; ATCC 9885; agar two-fold dilution, 37° C., 20 hours; read-out: MIC
Description: as §1, §2

[11] = tested on: Citrobacter freundii ATCC 8090; conditions: ATCC8090, ATCC 8090, agar two-fold dilution, 37° C., 20 hours, read-out: MIC
Description: as §1, §2

[12] = tested on: Pseudomonas aeruginosa ATCC 25619; conditions: ATCC25619, ATCC 25619, agar two-fold dilution, 37° C., 20 hours, read-out: MIC
Description: as §1, §2

[13] = tested on: Enterobacter cloacae ATCC 27508; conditions: ATCC27508, ATCC 27508, agar two-fold dilution, 37° C., 20 hours, read-out: MIC
Description: as §1, §2

[14] = tested on: Providencia rettgeri ATCC 9250; conditions: ATCC9250, agar two-fold dilution, 37° C., 20 hours
Description: as §1, §2

[15] = tested on: Staphylococcus epidermidis ATCC 12228; conditions: ATCC12228, ATCC 12228, agar two-fold dilution, 37° C., 20 hours, read-out: MIC
Description: as §1, §2

[16] = tested on: Escherichia coli ATCC 10536; conditions: ATCC10536, agar two-fold dilution, 37° C., 20 hours
Description: as §1, §2

[17] = tested on: Micrococcus luteus ATCC 9341; conditions: ATCC9341, ATCC 9341, agar two-fold dilution, 37° C., 20 hours, read-out: MIC
Description: as §1, §2

[18] = tested on: Pseudomonas aeruginosa ATCC 27853; conditions: ATCC27853, ATCC 27853, agar two-fold dilution, 37° C., 20 hours, read-out: MIC
Description: as §1, §2

[19] = tested on: Proteus mirabilis ATCC 25933; conditions: ATCC25933, ATCC 25933, agar two-fold dilution, 37° C., 20 hours, read-out: MIC
Description: as §1, §2

[20] = tested on: Acinetobacter calcoaceticus ATCC 15473; conditions: ATCC15473, ATCC 15473, agar two-fold dilution, 37° C., 20 hours, read-out: MIC
Description: as §1, §2

[21] = tested on: Klebsiella pneumoniae ATCC 10031; conditions: ATCC10031, ATCC 10031, agar two-fold dilution, 37° C., 20 hours, read-out: MIC
Description: as §1, §2

[22] = tested on: Shigella flexneri ATCC 11836; conditions: ATCC11836, agar two-fold dilution, 37° C., 20 hours
Description: as §1, §2

[23] = tested on: Serratia marcescens ATCC 27117; conditions: ATCC27117, ATCC 27117, agar two-fold dilution, 37° C., 20 hours, read-out: MIC
Description: as §1, §2

[24] = tested on: Shigella sonnei ATCC 11060; conditions: ATCC11060, ATCC 11060, agar two-fold dilution, 37° C., 20 hours, read-out: MIC
Description: as §1, §2

[25] = tested on: Staphylococcus aureus ATCC 6538p; conditions: ATCC6538P, ATCC 6538p, agar two-fold dilution, 37° C., 20 hours, read-out: MIC
Description: as §1, §2

Structure (SMILES) | MIC [1] [µg/mL] | MIC [2] [µg/mL] | MIC [3] [µg/mL] | MIC [4] [µg/mL] | MIC [5] [µg/mL] | MIC [6] [µg/mL] | MIC [7] [µg/mL] | MIC [8] [µg/mL] | MIC [9] [µg/mL] | MIC [10] [µg/mL] | MIC [11] [µg/mL] | MIC [12] [µg/mL] | MIC [13] [µg/mL] | MIC [14] [µg/mL] | MIC [15] [µg/mL] | MIC [16] [µg/mL] | MIC [17] [µg/mL] | MIC [18] [µg/mL] | MIC [19] [µg/mL] | MIC [20] [µg/mL] | other results
CCC[n+]1c(N)cc(N)nc1SCC1=C(C(=O)[O-])N2C(=O)C(NC(=O)/C(=N\OCC)c3nsc(N)n3)C2SC1 (stereo not drawn) [Compound I-22] | 1 (≈ 1.68 µM) | 2 (≈ 3.36 µM) | 16 (≈ 26.9 µM) | 0.031 (≈ 0.0521 µM) | 16 (≈ 26.9 µM) | 0.5 (≈ 0.841 µM) | 2 (≈ 3.36 µM) | 16 (≈ 26.9 µM) | 0.25 (≈ 0.42 µM) | 0.13 (≈ 0.219 µM) | 0.25 (≈ 0.42 µM) | 1 (≈ 1.68 µM) | 0.031 (≈ 0.0521 µM) | ≤ 0.008 | 0.25 (≈ 0.42 µM) | 0.25 (≈ 0.42 µM) | 0.016 (≈ 0.0269 µM) | 4 (≈ 6.73 µM) | 2 (≈ 3.36 µM) | 4 (≈ 6.73 µM) | MIC [21]: 0.016 µg/mL (≈ 0.0269 µM); MIC [22]: 0.13 µg/mL (≈ 0.219 µM); MIC [23]: 0.5 µg/mL (≈ 0.841 µM); MIC [24]: 0.5 µg/mL (≈ 0.841 µM); MIC [25]: 0.5 µg/mL (≈ 0.841 µM)
CO/N=C(\C(=O)NC1C(=O)N2C(C(=O)[O-])=C(CSc3nc(N)cc(N)[n+]3N)CSC12)c1csc(N)n1 (stereo not drawn) [Compound I-19] | 0.25 (≈ 0.452 µM) | 0.25 (≈ 0.452 µM) | 32 (≈ 57.9 µM) | 0.008 (≈ 0.0145 µM) | 2 (≈ 3.62 µM) | 0.5 (≈ 0.905 µM) | 0.016 (≈ 0.029 µM) | 8 (≈ 14.5 µM) | 0.13 (≈ 0.235 µM) | 0.13 (≈ 0.235 µM) | 0.13 (≈ 0.235 µM) | 0.5 (≈ 0.905 µM) | 0.016 (≈ 0.029 µM) | ≤ 0.008 | 0.063 (≈ 0.114 µM) | 0.13 (≈ 0.235 µM) | 0.016 (≈ 0.029 µM) | 1 (≈ 1.81 µM) | 0.13 (≈ 0.235 µM) | 4 (≈ 7.24 µM) | MIC [21]: ≤ 0.008 µg/mL; MIC [22]: 0.016 µg/mL (≈ 0.029 µM); MIC [23]: 0.25 µg/mL (≈ 0.452 µM); MIC [24]: 0.063 µg/mL (≈ 0.114 µM); MIC [25]: 0.25 µg/mL (≈ 0.452 µM)
CC[n+]1c(N)cc(N)nc1SCC1=C(C(=O)[O-])N2C(=O)C(NC(=O)/C(=N\OC)c3nsc(N)n3)C2SC1 (stereo not drawn) [Compound I-25] | 1 (≈ 1.76 µM) | 0.25 (≈ 0.441 µM) | 32 (≈ 56.5 µM) | 0.031 (≈ 0.0547 µM) | 16 (≈ 28.2 µM) | 0.5 (≈ 0.882 µM) | 1 (≈ 1.76 µM) | 32 (≈ 56.5 µM) | 0.13 (≈ 0.229 µM) | 0.13 (≈ 0.229 µM) | 0.13 (≈ 0.229 µM) | 4 (≈ 7.06 µM) | 0.031 (≈ 0.0547 µM) | 0.016 (≈ 0.0282 µM) | 0.13 (≈ 0.229 µM) | 0.13 (≈ 0.229 µM) | 0.031 (≈ 0.0547 µM) | 4 (≈ 7.06 µM) | 1 (≈ 1.76 µM) | 2 (≈ 3.53 µM) | MIC [21]: 0.031 µg/mL (≈ 0.0547 µM); MIC [22]: 0.031 µg/mL (≈ 0.0547 µM); MIC [23]: 0.25 µg/mL (≈ 0.441 µM); MIC [24]: 0.13 µg/mL (≈ 0.229 µM); MIC [25]: 0.5 µg/mL (≈ 0.882 µM)
